{
  "source": "patent US20150177246A1",
  "about": "“FUSION GENE OF CEP55 GENE AND RET GENE” (NATIONAL CANCER CENTER, priority 2012, published 2015)",
  "system": "downstream signals (STAT3, AKT, MAPK) of the CEP55-RET fusion polypeptide in NIH-3T3 cells",
  "assay": "Western blotting of downstream signals of the RET fusion polypeptide after serum starvation and culture with a RET tyrosine kinase inhibitor",
  "format": "cell-based, murine",
  "details": "inhibitor 1 μM in medium after serum starvation; NIH-3T3 cells expressing wild-type CEP55-RET; FIG. 7",
  "from_the_text": "In this figure, “CEP55-RET” represents the results for cell lines expressing the CEP55-RET fusion polypeptide, and “KIF5B-RET” represents the results for cell lines expressing the KIF5B-RET fusion polypeptide. […] The “STAT3” and “p-STAT3 (Y705)” rows show the results of detecting STAT3 and phosphorylated STAT3, respectively. The “AKT” and “p-AKT (S473)” show the results of detecting AKT and phosphorylated AKT, respectively. The “MAPK” and “p-MAPK (T202/Y204)” rows show the results of detecting MAPK and phosphorylated MAPK, respectively.\nNext, normal murine fibroblast line NIH-3T3 cells were infected with each of the thus-prepared retroviral vectors to obtain cell lines stably expressing the wild-type or the mutated CEP55-RET fusion polypeptide.\nIn addition, the cell lines stably expressing the wild-type or the mutated RET fusion polypeptide were each cultured in a liquid medium, subjected to serum starvation, and then cultured again with the medium being replaced with the one supplemented with a RET tyrosine kinase inhibitor (vandetanib or XL184). Protein from each of the thus-obtained cell lines was extracted and subjected to Western blotting analysis using antibodies against various phosphorylated or unphosphorylated proteins to thereby analyze the downstream signals of the RET fusion polypeptides.",
  "data": [
    {"molecule": "COc1cc2c(Nc3ccc(Br)cc3F)ncnc2cc1OCC1CCN(C)CC1", "note": "[V, 4-(4-bromo-2-fluoroanilino)-6-methoxy-7-(1-methylpiperidin-4-ylmethoxy)quinazoline]", "values": [
      {"measurement": "phosphorylation of MAPK, p-MAPK (T202/Y204705)", "value": "significantly suppressed"},
      {"measurement": "phosphorylation of STATS, p-STAT3 (Y705)", "value": "significantly suppressed"}
    ]}
  ]
}
